Laboratory results as given in the supplement of paper PMC10307832.

What was measured:
Experiment in all cases: relative viability (nuclei count vs DMSO), 5 days (fraction); higher = more cells survive
NCI-H23 = tested on: NCI-H23
Outline: (§1)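 For relative viability, nuclei counts in treated wells were divided by those in vehicle wells. Lung cancer cell lines had been pin-tool dosed in 1536-well plates the day after seeding and cultured for 5 days, then fixed and stained in one step (final 0.05% Triton X-100, 1% formaldehyde, 1 ug/ml Hoechst) and imaged at 4×. Doses were one drug alone or a fixed anchor-drug dose plus five library-drug doses (not always all listed) in √10 steps, and values are duplicate-plate medians.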

NCI-H2347 = tested on: NCI-H2347
Outline: as §1

NCI-H1395 = tested on: NCI-H1395
Outline: as §1

NCI-H2023 = tested on: NCI-H2023
Outline: as §1

NCI-H650 = tested on: NCI-H650
Outline: as §1

NCI-H2126 = tested on: NCI-H2126
Outline: as §1

NCI-H3122 = tested on: NCI-H3122
Outline: as §1

NCI-H838 = tested on: NCI-H838
Outline: as §1

NCI-H1993 = tested on: NCI-H1993
Outline: as §1

NCI-H2087 = tested on: NCI-H2087
Outline: as §1

NCI-H596 = tested on: NCI-H596
Outline: as §1

HCC-44 = tested on: HCC-44
Outline: as §1

NCI-H1666 = tested on: NCI-H1666
Outline: as §1

201T = tested on: 201T
Outline: as §1

HARA = tested on: HARA
Outline: as §1

NCI-H727 = tested on: NCI-H727
Outline: as §1

NCI-H2009 = tested on: NCI-H2009
Outline: as §1

BEN = tested on: BEN
Outline: as §1

LOU-NH91 = tested on: LOU-NH91
Outline: as §1

NCI-H647 = tested on: NCI-H647
Outline: as §1

EMC-BAC-2 = tested on: EMC-BAC-2
Outline: as §1

O=C(O)c1ccc(-c2c[nH]c3ncc(-c4ccccc4)cc23)cc1C1CCCC1 + CS(=O)(=O)CCNCc1ccc(-c2ccc3ncnc(Nc4ccc(OCc5cccc(F)c5)c(Cl)c4)c3c2)o1 [Lapatinib] (partner 2 µM)
relative viability (NCI-H23; first compound 0.04 µM): 1.12 | relative viability (NCI-H23; first compound 0.1265 µM): 0.894 | relative viability (NCI-H23; first compound 0.4 µM): 0.919 | relative viability (NCI-H23; first compound 1.265 µM): 0.752 | relative viability (NCI-H2347; first compound 0.04 µM): 0.96 | relative viability (NCI-H2347; first compound 0.1265 µM): 0.933 | relative viability (NCI-H2347; first compound 0.4 µM): 0.9 | relative viability (NCI-H2347; first compound 1.265 µM): 0.881 | relative viability (NCI-H1395; first compound 0.04 µM): 1.01 | relative viability (NCI-H1395; first compound 0.1265 µM): 1.23 | relative viability (NCI-H1395; first compound 0.4 µM): 0.867 | relative viability (NCI-H1395; first compound 1.265 µM): 0.851 | relative viability (NCI-H2023; first compound 0.04 µM): 0.915 | relative viability (NCI-H2023; first compound 0.1265 µM): 0.938 | relative viability (NCI-H2023; first compound 0.4 µM): 0.779 | relative viability (NCI-H2023; first compound 1.265 µM): 0.511 | relative viability (NCI-H650; first compound 0.04 µM): 0.712 | relative viability (NCI-H650; first compound 0.1265 µM): 1.26 | relative viability (NCI-H650; first compound 0.4 µM): 0.639 | relative viability (NCI-H650; first compound 1.265 µM): 0.561 | relative viability (NCI-H2126; first compound 0.04 µM): 0.764 | relative viability (NCI-H2126; first compound 0.1265 µM): 0.81 | relative viability (NCI-H2126; first compound 0.4 µM): 0.734 | relative viability (NCI-H2126; first compound 1.265 µM): 0.741 | relative viability (NCI-H3122; first compound 0.04 µM): 1.02 | relative viability (NCI-H3122; first compound 0.1265 µM): 1.01 | relative viability (NCI-H3122; first compound 0.4 µM): 0.974 | relative viability (NCI-H3122; first compound 1.265 µM): 0.857 | relative viability (NCI-H838; first compound 0.04 µM): 0.92 | relative viability (NCI-H838; first compound 0.1265 µM): 1.4 | relative viability (NCI-H838; first compound 0.4 µM): 1.11 | relative viability (NCI-H838; first compound 1.265 µM): 0.915 | relative viability (NCI-H1993; first compound 0.04 µM): 0.927 | relative viability (NCI-H1993; first compound 0.4 µM): 0.789 | relative viability (NCI-H1993; first compound 1.265 µM): 0.835 | relative viability (NCI-H2087; first compound 0.04 µM): 1.01 | relative viability (NCI-H2087; first compound 0.1265 µM): 1.27 | relative viability (NCI-H2087; first compound 0.4 µM): 1.02 | relative viability (NCI-H2087; first compound 1.265 µM): 1.02 | relative viability (NCI-H596; first compound 0.04 µM): 1.1 | relative viability (NCI-H596; first compound 0.1265 µM): 1.02 | relative viability (NCI-H596; first compound 0.4 µM): 0.979 | relative viability (NCI-H596; first compound 1.265 µM): 1.03 | relative viability (HCC-44; first compound 0.04 µM): 0.959 | relative viability (HCC-44; first compound 0.1265 µM): 1.02 | relative viability (HCC-44; first compound 0.4 µM): 1.1 | relative viability (HCC-44; first compound 1.265 µM): 0.913 | relative viability (NCI-H1666; first compound 0.04 µM): 0.673 | relative viability (NCI-H1666; first compound 0.1265 µM): 0.522 | relative viability (NCI-H1666; first compound 0.4 µM): 0.796 | relative viability (NCI-H1666; first compound 1.265 µM): 0.344 | relative viability (201T; first compound 0.04 µM): 0.966 | relative viability (201T; first compound 0.1265 µM): 1.06 | relative viability (201T; first compound 0.4 µM): 1.01 | relative viability (201T; first compound 1.265 µM): 0.988 | relative viability (HARA; first compound 0.04 µM): 0.578 | relative viability (HARA; first compound 0.1265 µM): 0.925 | relative viability (HARA; first compound 0.4 µM): 0.802 | relative viability (HARA; first compound 1.265 µM): 0.716 | relative viability (NCI-H727; first compound 0.04 µM): 0.955 | relative viability (NCI-H727; first compound 0.1265 µM): 1 | relative viability (NCI-H727; first compound 0.4 µM): 0.876 | relative viability (NCI-H727; first compound 1.265 µM): 1.16 | relative viability (NCI-H2009; first compound 0.04 µM): 1.06 | relative viability (NCI-H2009; first compound 0.1265 µM): 0.922 | relative viability (NCI-H2009; first compound 0.4 µM): 0.882 | relative viability (NCI-H2009; first compound 1.265 µM): 0.848 | relative viability (BEN; first compound 0.04 µM): 0.717 | relative viability (BEN; first compound 0.1265 µM): 0.611 | relative viability (BEN; first compound 0.4 µM): 0.815 | relative viability (BEN; first compound 1.265 µM): 0.666 | relative viability (LOU-NH91; first compound 0.04 µM): 0.814 | relative viability (LOU-NH91; first compound 0.1265 µM): 0.837 | relative viability (LOU-NH91; first compound 0.4 µM): 0.766 | relative viability (LOU-NH91; first compound 1.265 µM): 0.651 | relative viability (NCI-H647; first compound 0.04 µM): 1.05 | relative viability (NCI-H647; first compound 0.1265 µM): 1.12 | relative viability (NCI-H647; first compound 0.4 µM): 1.13 | relative viability (NCI-H647; first compound 1.265 µM): 0.801 | relative viability (EMC-BAC-2; first compound 0.04 µM): 0.848 | relative viability (EMC-BAC-2; first compound 0.1265 µM): 1.03 | relative viability (EMC-BAC-2; first compound 0.4 µM): 0.916 | relative viability (EMC-BAC-2; first compound 1.265 µM): 0.946

Oc1nc(-c2ccc(C(F)(F)F)cc2)nc2c1CSCC2 [XAV939] + CS(=O)(=O)CCNCc1ccc(-c2ccc3ncnc(Nc4ccc(OCc5cccc(F)c5)c(Cl)c4)c3c2)o1 [Lapatinib] (partner 2 µM)
relative viability (NCI-H23; first compound 0.08 µM): 1.17 | relative viability (NCI-H23; first compound 0.253 µM): 1.01 | relative viability (NCI-H23; first compound 0.8 µM): 0.966 | relative viability (NCI-H23; first compound 2.53 µM): 0.932 | relative viability (NCI-H2347; first compound 0.08 µM): 0.944 | relative viability (NCI-H2347; first compound 0.253 µM): 0.708 | relative viability (NCI-H2347; first compound 0.8 µM): 0.805 | relative viability (NCI-H2347; first compound 2.53 µM): 0.672 | relative viability (NCI-H1395; first compound 0.08 µM): 0.976 | relative viability (NCI-H1395; first compound 0.253 µM): 0.919 | relative viability (NCI-H1395; first compound 0.8 µM): 0.985 | relative viability (NCI-H1395; first compound 2.53 µM): 1.01 | relative viability (NCI-H2023; first compound 0.08 µM): 0.737 | relative viability (NCI-H2023; first compound 0.253 µM): 0.723 | relative viability (NCI-H2023; first compound 0.8 µM): 0.674 | relative viability (NCI-H2023; first compound 2.53 µM): 0.622 | relative viability (NCI-H650; first compound 0.08 µM): 0.868 | relative viability (NCI-H650; first compound 0.253 µM): 0.957 | relative viability (NCI-H650; first compound 0.8 µM): 1 | relative viability (NCI-H650; first compound 2.53 µM): 0.893 | relative viability (NCI-H2126; first compound 0.08 µM): 0.739 | relative viability (NCI-H2126; first compound 0.253 µM): 0.583 | relative viability (NCI-H2126; first compound 0.8 µM): 0.667 | relative viability (NCI-H2126; first compound 2.53 µM): 0.585 | relative viability (NCI-H3122; first compound 0.08 µM): 1.01 | relative viability (NCI-H3122; first compound 0.253 µM): 0.95 | relative viability (NCI-H3122; first compound 0.8 µM): 1.01 | relative viability (NCI-H3122; first compound 2.53 µM): 1.01 | relative viability (NCI-H838; first compound 0.08 µM): 1.13 | relative viability (NCI-H838; first compound 0.253 µM): 0.918 | relative viability (NCI-H838; first compound 0.8 µM): 0.949 | relative viability (NCI-H838; first compound 2.53 µM): 0.767 | relative viability (NCI-H1993; first compound 0.8 µM): 0.866 | relative viability (NCI-H1993; first compound 2.53 µM): 0.702 | relative viability (NCI-H2087; first compound 0.08 µM): 1.12 | relative viability (NCI-H2087; first compound 0.253 µM): 1.06 | relative viability (NCI-H2087; first compound 0.8 µM): 1.08 | relative viability (NCI-H2087; first compound 2.53 µM): 0.89 | relative viability (NCI-H596; first compound 0.08 µM): 1.21 | relative viability (NCI-H596; first compound 0.253 µM): 1.12 | relative viability (NCI-H596; first compound 0.8 µM): 1.1 | relative viability (NCI-H596; first compound 2.53 µM): 0.656 | relative viability (HCC-44; first compound 0.08 µM): 1.01 | relative viability (HCC-44; first compound 0.253 µM): 0.816 | relative viability (HCC-44; first compound 0.8 µM): 0.955 | relative viability (HCC-44; first compound 2.53 µM): 0.928 | relative viability (NCI-H1666; first compound 0.08 µM): 0.571 | relative viability (NCI-H1666; first compound 0.253 µM): 0.415 | relative viability (NCI-H1666; first compound 0.8 µM): 0.442 | relative viability (NCI-H1666; first compound 2.53 µM): 0.353 | relative viability (201T; first compound 0.08 µM): 1.08 | relative viability (201T; first compound 0.253 µM): 0.866 | relative viability (201T; first compound 0.8 µM): 0.948 | relative viability (201T; first compound 2.53 µM): 0.896 | relative viability (HARA; first compound 0.08 µM): 0.73 | relative viability (HARA; first compound 0.253 µM): 0.419 | relative viability (HARA; first compound 0.8 µM): 0.402 | relative viability (HARA; first compound 2.53 µM): 0.606 | relative viability (NCI-H727; first compound 0.08 µM): 1.14 | relative viability (NCI-H727; first compound 0.253 µM): 0.589 | relative viability (NCI-H727; first compound 0.8 µM): 0.759 | relative viability (NCI-H727; first compound 2.53 µM): 0.877 | relative viability (NCI-H2009; first compound 0.08 µM): 1.08 | relative viability (NCI-H2009; first compound 0.253 µM): 0.819 | relative viability (NCI-H2009; first compound 0.8 µM): 0.842 | relative viability (NCI-H2009; first compound 2.53 µM): 0.771 | relative viability (BEN; first compound 0.08 µM): 0.656 | relative viability (BEN; first compound 0.253 µM): 0.547 | relative viability (BEN; first compound 0.8 µM): 0.584 | relative viability (BEN; first compound 2.53 µM): 0.435 | relative viability (LOU-NH91; first compound 0.08 µM): 0.73 | relative viability (LOU-NH91; first compound 0.253 µM): 0.695 | relative viability (LOU-NH91; first compound 0.8 µM): 0.696 | relative viability (LOU-NH91; first compound 2.53 µM): 0.628 | relative viability (NCI-H647; first compound 0.08 µM): 0.91 | relative viability (NCI-H647; first compound 0.253 µM): 0.854 | relative viability (NCI-H647; first compound 0.8 µM): 0.987 | relative viability (NCI-H647; first compound 2.53 µM): 0.921 | relative viability (EMC-BAC-2; first compound 0.08 µM): 1.01 | relative viability (EMC-BAC-2; first compound 0.253 µM): 0.821 | relative viability (EMC-BAC-2; first compound 0.8 µM): 0.837 | relative viability (EMC-BAC-2; first compound 2.53 µM): 0.681
